{
  "source": "patent US9675591B2",
  "about": "“Methods for treating seizure disorders and pain” (THE REGENTS OF THE UNIVERSITY OF CALIFORNIA, priority 2013, dated 2017)",
  "key": {"Nav1.2": {"biological_target": "Nav1.2 (Mus musculus (Mouse), UniProt B1AWN6)", "sequence (B1AWN6 whole entry)": "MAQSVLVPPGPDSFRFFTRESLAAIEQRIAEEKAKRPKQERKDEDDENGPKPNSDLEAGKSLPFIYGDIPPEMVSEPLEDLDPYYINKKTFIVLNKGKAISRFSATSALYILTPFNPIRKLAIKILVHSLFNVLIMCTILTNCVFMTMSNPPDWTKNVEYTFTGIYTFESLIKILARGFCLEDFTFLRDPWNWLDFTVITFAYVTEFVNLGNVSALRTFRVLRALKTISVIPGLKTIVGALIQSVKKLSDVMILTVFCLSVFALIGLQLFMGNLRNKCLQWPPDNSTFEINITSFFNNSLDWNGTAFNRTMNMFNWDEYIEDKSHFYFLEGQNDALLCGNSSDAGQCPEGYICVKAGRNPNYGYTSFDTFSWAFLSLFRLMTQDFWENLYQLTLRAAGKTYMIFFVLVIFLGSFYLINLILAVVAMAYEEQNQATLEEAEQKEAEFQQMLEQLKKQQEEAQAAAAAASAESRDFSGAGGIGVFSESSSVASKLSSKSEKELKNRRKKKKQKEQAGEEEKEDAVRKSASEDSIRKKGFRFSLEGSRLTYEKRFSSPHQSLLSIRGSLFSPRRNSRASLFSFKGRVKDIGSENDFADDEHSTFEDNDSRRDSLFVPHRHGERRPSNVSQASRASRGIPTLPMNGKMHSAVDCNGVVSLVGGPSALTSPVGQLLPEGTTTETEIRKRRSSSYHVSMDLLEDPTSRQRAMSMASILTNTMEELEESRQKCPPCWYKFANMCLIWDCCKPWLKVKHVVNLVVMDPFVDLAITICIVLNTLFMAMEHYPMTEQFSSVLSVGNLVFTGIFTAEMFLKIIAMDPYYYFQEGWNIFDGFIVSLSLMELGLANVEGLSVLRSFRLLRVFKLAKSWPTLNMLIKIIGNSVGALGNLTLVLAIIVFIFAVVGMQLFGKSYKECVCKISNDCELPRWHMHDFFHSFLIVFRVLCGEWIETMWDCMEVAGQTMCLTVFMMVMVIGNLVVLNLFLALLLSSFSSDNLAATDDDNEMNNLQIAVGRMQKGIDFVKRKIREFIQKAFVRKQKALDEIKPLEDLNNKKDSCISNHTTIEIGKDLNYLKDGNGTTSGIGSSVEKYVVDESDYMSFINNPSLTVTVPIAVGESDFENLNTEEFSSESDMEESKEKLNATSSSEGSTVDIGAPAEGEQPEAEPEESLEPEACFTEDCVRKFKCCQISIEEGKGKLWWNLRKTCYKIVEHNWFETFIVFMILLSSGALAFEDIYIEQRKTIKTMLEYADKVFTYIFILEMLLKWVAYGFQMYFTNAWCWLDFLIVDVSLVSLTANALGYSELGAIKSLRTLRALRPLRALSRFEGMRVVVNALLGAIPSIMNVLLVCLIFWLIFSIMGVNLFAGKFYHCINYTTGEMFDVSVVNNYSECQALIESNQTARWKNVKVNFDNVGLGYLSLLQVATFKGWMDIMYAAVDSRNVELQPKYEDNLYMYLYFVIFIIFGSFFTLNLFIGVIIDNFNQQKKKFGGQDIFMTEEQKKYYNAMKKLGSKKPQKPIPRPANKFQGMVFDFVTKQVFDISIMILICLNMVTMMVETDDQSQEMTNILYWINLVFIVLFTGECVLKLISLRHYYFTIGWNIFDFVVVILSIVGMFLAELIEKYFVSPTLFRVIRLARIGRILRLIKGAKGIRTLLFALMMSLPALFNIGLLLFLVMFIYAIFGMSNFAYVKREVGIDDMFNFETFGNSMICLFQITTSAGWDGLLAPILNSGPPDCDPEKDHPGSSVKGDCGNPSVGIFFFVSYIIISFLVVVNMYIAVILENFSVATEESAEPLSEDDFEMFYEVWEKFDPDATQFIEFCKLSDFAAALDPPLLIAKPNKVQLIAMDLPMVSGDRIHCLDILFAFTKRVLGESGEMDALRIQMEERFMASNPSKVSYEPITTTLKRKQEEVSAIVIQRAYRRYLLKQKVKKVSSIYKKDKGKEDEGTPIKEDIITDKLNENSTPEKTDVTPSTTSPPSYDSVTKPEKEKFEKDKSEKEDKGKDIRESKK", "test": "Voltage-clamp, Nav1.2 currents in N1E-115 neuroblastoma cells", "assay_type": "cell-based", "description": "All experiments were conducted at room temperature (22-24° C.) with an EPC-10 amplifier and Pulse software (HEKA, Lambrecht/Pfalz, Germany) in the whole-cell mode of the patch-clamp technique. Human embryonic kidney (HEK)-293 cell lines stably expressing hNav1.1, hNav1.5, hNav1.7 channels (generously provided by Dr. Christopher Lossin, University of California Davis), hNav1.4 (Frank Lehmann-Horn, University of Ulm), or hKv2.1 channels (James Trimmer, University of California Davis) were bathed in extracellular solution containing (in mM): 160 NaCl; 4.5 KCl; 1 MgCl2; 2 CaCl2; 10 HEPES [pH was adjusted to 7.4 using NaOH (310 mOsm)]. Pipettes were filled with intracellular solution containing (in mM): 145 KF; 2 MgCl2; 10 ethylene glycol tetraacetic acid; 10 HEPES (pH adjusted to 7.2 with KOH; 300 mOsm). Neuroblastoma N1E-115 cells (ATCC, Manassa, Va., USA) expressing Nav1.2 were patched with a CsF internal solution consisting of (in mM): 10 NaF; 110 CsF; 20 CsCl; 2 ethylene glycol tetraacetic acid; 10 HEPES (CsOH to pH 7.35; 300 mOsm). All pipette tip resistances were 2-4 MΩ. Series resistances of 3-10 MΩ were compensated 40-80%. All cells were voltage-clamped to a holding potential of −90 mV unless otherwise specified. The sampling frequency was 5 kHz. Na^+ currents were elicited by 30-ms pulse to 0 mV from −90 mV applied every 10 s. Kv2.1 currents were elicited by 200-ms voltage steps from −90 to 40 mV applied every 10 s."}, "[1]": {"test": "Pharmacokinetics in Sprague-Dawley rats", "assay_type": "in vivo"}, "MES-induced seizures": {"system": "MES-induced seizures", "test": "Maximal electroshock (MES) seizure test, rats (ASP, methylcellulose suspension)", "assay_type": "in vivo", "details": "for ED50: Rattus norvegicus, read-out: ED50, seizure protection in the MES test", "description": "SKA-19 was tested under the auspices of the National Institutes of Health's Anticonvulsant Screening Program (ASP). Experiments were performed in male albino CF (Carworth Farms) No. 1 mice or Sprague-Dawley rats according to the established protocols of the ASP (White et al., 2002). SKA-19 was suspended in 0.5% methylcellulose and administered in a volume that permits accuracy of dosage without excessively contributing to total body fluid (0.01 ml/g body weight for mice and 0.04 ml/10 g body weight for rats).\nAnimals received an electrical stimulus of 0.2 s duration (50 mA in mice and 150 mA in rat at 60 Hz) delivered via corneal electrodes primed with an electrolyte solution containing 0.5% tetracaine. Animals were restrained by hand and released immediately after stimulation to permit observation of the seizure throughout its entire course. In the initial screens to identify anticonvulsant activity mice were tested at 30 minutes and 4 hours following doses of 3, 10, 30, 100 and 300 mg/kg of SKA-19 and rats tested at time intervals between 0.25 and 4 hours following a standard oral dose of 30 mg/kg. In the subsequent, more quantitative tests at least four doses of SKA-19 (n=8 per dose) were tested at the previously determined time of peak effect (TPE). Abolition of hindlimb tonic extension indicates the test compound's ability to inhibit MES-induced seizure spread. Tonic extension is considered abolished if the hind limbs are not fully extended at 180° with the body."}, "CA1 pyramidal neurons": {"system": "CA1 pyramidal neurons", "test": "Hippocampal slice recordings", "assay_type": "cell-based, mouse", "details": "for effect on AP firing: 1-s 150-pA current injection", "description": "Brain slice preparation was approved by the University of California, Irvine, Institutional Animal Care and Use Committee. Male C57BL/6 J mice (postnatal day 23) were anesthetized with halothane, decapitated, and brains transferred to an ice-cold, sucrose artificial cerebral spinal fluid (ACSF; Sigma-Aldrich). Hippocampal slices (300 μm) were prepared using a Leica VT1200S vibrating blade microtome (Leica Microsystems Inc., Buffalo Grove, Ill.). Slices were incubated at 33° C. in oxygenated (95% O2, 5% CO2) standard ACSF containing the following (mM) for at least 1 h before recordings: 126 NaCl, 2.5 KCl, 1.25 NaHPO4, 1.2 MgSO4, 10 glucose, 1.2 CaCl2, and 26 NaHCO3. Slices were submerged and continuously perfused at 2 ml/min with oxygenated ACSF at 33° C. during the current-clamp experiments. Voltage-clamp experiments were performed in the same ACSF but with 1 mM tetraethylammonium chloride (Sigma-Aldrich) and 0.5 μM tetrodotoxin (Sigma-Aldrich) added. Pyramidal CA1 neurons were visualized and identified with an upright microscope (Zeiss Axioskop Plus; Zeiss Jena, Germany) with infrared differential interference contrast optics. Recording pipettes (2-5 MΩ) were filled with intracellular solution containing (in mM): 126 K-gluconate; 4 KCl; 10 HEPES; 2 Mg-adenosine triphosphate; 0.3 Tris-guanosine triphosphate; 10 phosphocreatine, pH 7.20, 270-290 mOsm. In the current-clamp mode, depolarizing current pulses were applied from a membrane potential of −65 mV to evoke tonic firing activity. In the voltage-clamp mode, neurons were held at −55 mV and KCa currents elicited by 50-ms voltage steps to 10 mV, applied every 10 s. SKA-19 or NS309 were perfused for 10 min into the bath to allow for equilibrium. Recordings were performed in the whole-cell mode using a MultiClamp 700B amplifier (Molecular Devices), […] and sampled at 20 kHz with a Digidata 1322A digitizer (Molecular Devices). Data were acquired and analyzed with pClamp 10.2 software (Molecular Devices)."}},
  "note": "Where “and” joins values, the source holds several entries; their conditions need not be identical. Equal values may be shown once. Entries after “also recorded” stand apart in the source; their conditions may differ. Read-outs that look alike come from different tables or passages of the source.",
  "data": [
    {"compound": "Nc1nc2ccc(SC(F)(F)F)cc2s1", "note": "[SKA-19, 6-((trifluoromethyl)thio)benzo[d]thiazol-2-amine]", "values": [
      {"measurement": "IC50", "setting": "Nav1.2; 20 Hz, read-out: IC50, Nav1.2", "value": "0.52 ± 0.23", "unit": "µM"},
      {"measurement": "IC50", "setting": "Nav1.2; -70 mV holding potential, read-out: IC50, Nav1.2", "value": "0.86 ± 0.7", "unit": "µM"},
      {"measurement": "IC50", "setting": "Nav1.2; -120 mV holding potential, read-out: IC50, Nav1.2", "value": "9.5 ± 1.72", "unit": "µM"},
      {"measurement": "IC50", "setting": "Nav1.2; changed holding potential, read-out: IC50, Nav1.2", "value": 0.86, "unit": "µM"},
      {"measurement": "IC50", "setting": "Nav1.2; holding potential -90 mV, 0.1 Hz, read-out: EC50 or IC50, Nav1.2", "value": "~7.9 µM and 7.9 µM"},
      {"measurement": "IC50", "setting": "Nav1.2; pulse frequency 20 Hz, read-out: IC50, Nav1.2", "value": 0.52, "unit": "µM"},
      {"measurement": "oral availability", "setting": "[1]; 10 mg/kg, both vehicles (solution and methylcellulose suspension)", "value": "roughly 30%"},
      {"measurement": "penetration into tissues (brain, heart, spleen, liver)", "setting": "[1]; 2 h after i.p. 10 mg/kg", "value": "very effective at penetrating into tissues"},
      {"measurement": "peak plasma concentration", "setting": "[1]; gavage 10 mg/kg, suspension in methylcellulose", "value": "1.6 ± 0.6", "unit": "µM"},
      {"measurement": "Kp at 2 h", "setting": "[1]; male, Sprague-Dawley, rat, brain, ip, 10 mg/kg i.p., 2 h, read-out: brain to plasma concentration ratio", "value": "~3"},
      {"measurement": "concentration at 2 h", "setting": "[1]; male, Sprague-Dawley, rat, plasma, intraperitoneal, 10 mg/kg i.p., 2 h, read-out: plasma concentration", "value": "4.6 ± 1.3", "unit": "µM"},
      {"measurement": "concentration at 2 h", "setting": "[1]; male, Sprague-Dawley, rat, plasma, intraperitoneal, 30 mg/kg i.p., 2 hours, read-out: total plasma concentration", "value": "12 ± 2.21", "unit": "µM"},
      {"measurement": "concentration at 4 h", "setting": "[1]; male, Sprague-Dawley, rat, plasma, intraperitoneal, 30 mg/kg i.p., 4 hours, read-out: total plasma concentration", "value": "13.1 ± 2.67", "unit": "µM"},
      {"measurement": "half-life", "setting": "[1]; male, Sprague-Dawley, rat, plasma, iv, 10 mg/kg, rats, i.v. 10 mg/kg in cremophor EL/PBS, read-out: elimination half-life t1/2 (converted)", "value": 2.2, "unit": "h"},
      {"measurement": "concentration at 8 h", "setting": "[1]; male, Sprague-Dawley, rat, plasma, oral solution 10 mg/kg, at 8 h", "value": 0.4, "unit": "µM"},
      {"measurement": "oral availability", "setting": "[1]; methylcellulose suspension as used by the ASP", "value": "about 50%"},
      {"measurement": "plasma concentration", "setting": "[1]; oral solution 10 mg/kg, for 5 h", "value": "around 1 μM"},
      {"measurement": "sedation", "setting": "[1]; rats, 30 mg/kg i.p., recovered without weight loss at 24 h", "value": "prolonged sedation"},
      {"measurement": "elimination half-life t1/2", "setting": "[1]; rats, i.v. 10 mg/kg in cremophor EL/PBS", "value": "2.16 ± 0.023", "unit": "h"},
      {"measurement": "ED50", "setting": "MES-induced seizures; ip, 1 h time point", "value": 1.6, "unit": "mg/kg"},
      {"measurement": "ED50", "setting": "MES-induced seizures; oral (SKA-19: 4 h time point)", "value": 2.33, "unit": "mg/kg"},
      {"measurement": "protective index PI (TD50/ED50)", "setting": "MES-induced seizures; i.p.", "value": 8.9},
      {"measurement": "protective index PI (TD50/ED50)", "setting": "MES-induced seizures; oral", "value": "~33 and 33.2"},
      {"measurement": "protection from MES induced seizures, initial screen", "setting": "MES-induced seizures; oral 30 mg/kg, 0.25, 0.5, 1, 2 and 4 h", "value": "fully protected"},
      {"measurement": "effect on AP firing", "setting": "CA1 pyramidal neurons; 1 μM", "value": "slowed down AP firing"},
      {"measurement": "reduction of the number of spikes", "setting": "CA1 pyramidal neurons; 10 μM, all injected current levels", "value": "roughly 50%"},
      {"measurement": "after-hyperpolarization amplitude of individual APs", "setting": "CA1 pyramidal neurons; 10 μM, current-clamp", "value": "increase in after-hyperpolarization amplitude"},
      {"measurement": "effect on AP firing", "setting": "CA1 pyramidal neurons; 25 μM", "value": "completely suppressed"},
      {"measurement": "mAHP current amplitude", "setting": "CA1 pyramidal neurons; voltage-clamp, 10 μM", "value": "modest but significant increase; also recorded: increases the amplitude"}
    ]}
  ]
}
